{"source": "paper PMC5218823", "about": "“Acute effects of ethanol on GABAA and glycine currents in the lateral habenula neurons of young rats” (Open journal of neuroscience, 2013)", "key": {"[1]": {"system": "T1, GABAA receptors (GABAARs) of lateral habenula neurons", "T1 construct": "gene Gabra1", "conditions": "10 μM GABA, co-applied; VH -60 mV; pH 7.4; 22-24 °C; voltage-independent; extrapolated beyond tested 10.8-43.2 mM"}, "[2]": {"system": "T2, glycine receptors (GlyRs) of lateral habenula neurons", "T2 construct": "gene Glra1", "conditions": "30 μM glycine; VH -60 mV; pH 7.4; 22-24 °C; positive modulator"}, "[3]": {"system": "T2, glycine receptors (GlyRs) of lateral habenula neurons", "experiment": "whole-cell patch clamp, inhibition of glycine current", "format": "cell-based, Rattus norvegicus", "conditions": "500 μM glycine, co-applied; VH -60 mV; pH 7.4; 22-24 °C; antagonist"}, "[4]": {"system": "T2, glycine receptors (GlyRs) of lateral habenula neurons", "conditions": "VH -60 mV; pH 7.4; 22-24 °C; agonist"}}}
{"smiles": "CCO", "note": "[ethanol]", "values": [{"measurement": "IC50", "setting": "[1]", "value": "94100 ± 29100", "unit": "µM"}, {"measurement": "% of control at 43.2 mM", "setting": "[2]", "value": "148 ± 14", "unit": "%"}]}
{"smiles": "O=C1C[C@@H]2OCC=C3CN4CC[C@]56c7ccccc7N1[C@H]5[C@H]2[C@H]3C[C@H]46", "note": "[strychnine]", "values": [{"measurement": "IC50", "setting": "[3]", "value": 0.22, "unit": "µM"}]}
{"smiles": "NCC(=O)O", "note": "[glycine]", "values": [{"measurement": "EC50", "setting": "[4]", "value": 83.3, "unit": "µM"}]}
